We go through 13 molecules from patent US12673041B2, “4-aminobut-2-enamide derivatives and salt thereof” (TAIHO PHARMACEUTICAL CO., LTD., priority 2019, dated 2026).

Each structure is given as a SMILES string.

For assay [1], the target named is T1, GMPPNP-bound KRAS G12C protein and cRAF RAS-binding domain (cRAF-RBD) (Homo sapiens, UniProt P01116, G12C).
T1 construct: made in house; host or cells: E. coli
Kind of assay: Inhibitory activity on interaction between KRAS G12C and cRAF (Alpha technology). The format is biochemical. The note with it: GMPPNP-bound KRAS G12C incubated with compound at 25° C. for 1 hour, then cRAF-RBD, Alpha signal; read-out: IC50. How it is done: Interaction between recombinant K-Ras4B G12C mutant protein (amino acids 1-169, SEQ ID NO:2) and cRAF RAS-binding domain (cRAF-RBD, amino acids 50-132, Jena Biosciences GmbH) was measured using Alpha technology (PerkinElmer Inc.).
Recombinant KRAS G12C protein with an N-terminal His-tag was expressed in E. coli and purified by affinity chromatography. To prepare GTP-bound form and GDP-bound form of KRAS G12C protein, 50 μM KRAS G12C protein was incubated with 1 mM GMPPNP (Guanosine-5′-[(β,γ)-imido]triphosphate, Tetralithium salt) (Jena Bioscience GmbH) and 1 mM GDP, respectively, in a loading buffer (20 mM Tris-HCl (pH 7.5), 50 mM NaCl, 1 mM DTT and 2.5 mM EDTA) for 1 hour on ice. After the incubation, MgCl2 was added to a final concentration of 10 mM, followed by incubation at room temperature for 30 minutes. The mixture was allowed to pass through a NAP-5 column to remove free nucleotides and purified, and the resultant nucleotide-bound KRAS G12C protein was used for compound evaluation.
For the measurement of the inhibitory activity of compounds on interaction between KRAS G12C and cRAF-RBD, GMPPNP-bound KRAS G12C protein was incubated with various concentrations of compound in a reaction buffer (20 mM Tris-HCl (pH 7.5), 100 mM NaCl, 1 mM MgCl2, 1 mM TCEP, 0.1% Tween 20) at 25° C. for 1 hour. After the incubation, recombinant cRAF-RBD and Alpha detection reagents were added and incubated at room temperature for 1.5 hours for binding. Interaction 5 of KRAS G12C and cRAF-RBD was monitored by measuring Alpha signal. Inhibition % was calculated using the signal from the reaction without test compound (DMSO control) as 0% inhibition and the signal from the reaction using GDP-bound KRAS G12C in place of GMPPNP-bound KRAS G12C as 100% inhibition. IC50 values were calculated from dose titration curve using curve fitting by XLfit software (IDBS).

Assay [2] has as its target Gppcp-bound recombinant K-Ras4B G12C mutant protein (amino acids 1-169, C51S/C80L/C118S) (Homo sapiens, UniProt P01116, C118S/C51S/C80L/G12C). Kind of assay: KRASG12C binding assay (LC-MS compound binding rate). The following applies: test compound final concentration 0.5 μM, 25° C., 1 hour. How it is done:
As test compounds for the KRASG12C binding assay, the compounds obtained in the “Preparation of Compounds” section were used. Sample solutions each containing a test compound were prepared in the form of a 10 mM DMSO solution.
Gppcp-bound recombinant K-Ras4B G12C mutant protein (amino acids 1-169, C51S/C80L/C118S, SEQ ID NO:1) was diluted with a buffer (1×TBS, 0.1 mM TCEP, 0.25 mM MgCl2, 50 μM Gppcp) to prepare a 50 nM protein solution. K-Ras4B is the major splicing variant of K-Ras. Amino acid sequence of residues 1 to 150 including the compounds' binding region of K-Ras4B is exactly same as that of K-Ras4A, the other splicing variant (Oncotarget. 2016 Jul. 19; 7(29): 46717-46733). A sample solution containing 10 mM test compound was diluted ten-fold with DMSO to make a 1 mM sample solution, and then diluted twenty-fold with DMSO to make a 50 μM sample solution. 1 μL of a 50 μM sample solution was added to 100 μL of a 50 nM protein solution to adjust the final concentration of a test compound to be 0.5 μM in the mixture. The mixtures were stored in an incubator at 25° C. for 1 hour, and 10 μL of a 1×TBS solution containing 2% formic acid was added to stop the reaction, followed by LC-MS measurement. LC-MS measurement was performed using Xevo G2-S Q-Tof manufactured by Waters, and reverse-phase chromatography was performed with a desalting column. A mass spectrum of positive ions was obtained by electrospray. For a mass spectrum, a spectrum of polyvalent ions was collectively converted to a molecular weight by using OpenLynx software by the MaxEnt technique, and a compound binding rate was calculated from the ratio of the signal intensity of a peak that corresponds to the molecular weight of the protein to the signal intensity of a peak that corresponds to the molecular weight of the protein conjugated with the compound.
The binding assay of the test compounds was conducted at a final concentration of 0.5 μM. A binding rate of 80% or more is rated “A”, a binding rate of 60% or more and less than 80% is rated “B”, a binding rate of 40% or more and less than 60% is rated “C”, a binding rate of 20% or more and less than 40% is rated “D”, and a binding rate of less than 20% is rated “E”. N.D.=not determined. Binding rate % is the ratio of KRAS signal intensity at the molecular weight of one molecule adduct to the sum of all the KRAS signal intensity (unbound form and adducts) in mass spectrum.
Thus, binding rate 100% means that only the one molecule adduct was observed without any unbound KRAS.

As to `Cc1nc2c(Cl)c(-c3cccc(NC(=O)c4ccc(NC(=O)/C=C/CNC5CCC(F)(F)CC5)c(C#N)c4)c3)c(Cl)cc2n1C` [Example 20, (E)-3-cyano-N-(3-(4,6-dichloro-1,2-dimethyl-1H-benzo[d]imidazol-5-yl)phenyl)-4-(4-((4,4-difluorocyclohexyl)amino)but-2-enamido)benzamide], in assay [1], the IC50 came to 150 nM. The binding rate entry in assay [2] is listed as “A (A binding rate of 80% or more is rated “A”)”.
Turning to `COCc1nc2cc(-c3cccc(NC(=O)c4ccc(NC(=O)/C=C/CN[C@H]5CC[C@H](OC)CC5)c(C#N)c4)c3)c(C(F)(F)F)cc2n1C` [Example 21, 3-cyano-4-((E)-4-(((1r,4r)-4-methoxycyclohexyl)amino)but-2-enamido)-N-(3-(2-(methoxymethyl)-1-methyl-6-(trifluoromethyl)-1H-benzo[d]imidazol-5-yl)phenyl)benzamide], the half-inhibitory concentration (IC50) in assay [1] was 220 nM. Besides, the binding rate result in assay [2] is on record as “A (A binding rate of 80% or more is rated “A”)”.
On to `COCc1nc2cc(-c3cccc(NC(=O)c4ccc(NC(=O)/C=C/CNC5C[C@H]6CC[C@@H](C5)O6)c(C#N)c4)c3)c(C(F)(F)F)cc2n1C` (stereo partly drawn) [Example 22, 4-((E)-4-(((1R,5S)-8-oxabicyclo[3.2.1]octan-3-yl)amino)but-2-enamido)-3-cyano-N-(3-(2-(methoxymethyl)-1-methyl-6-(trifluoromethyl)-1H-benzo[d]imidazol-5-yl)phenyl)benzamide], for which the IC50 in assay [1] stood at 140 nM. Besides, the binding rate entry in assay [2] is “A (A binding rate of 80% or more is rated “A”)”.
The corresponding values for `CO[C@H](C)c1nc2cc(-c3cccc(NC(=O)c4ccc(NC(=O)/C=C/CN[C@H]5CC[C@H](OC)CC5)c(C#N)c4)c3)c(C(F)(F)F)cc2n1C` [Example 23, 3-cyano-4-((E)-4-(((1r,4r)-4-methoxycyclohexyl)amino)but-2-enamido)-N-(3-(2-((R)-1-methoxyethyl)-1-methyl-6-(trifluoromethyl)-1H-benzo[d]imidazol-5-yl)phenyl)benzamide] are 220 nM and “A (A binding rate of 80% or more is rated “A”)”.
In the case of `COCc1nc2cc(-c3cccc(NC(=O)c4ccc(NC(=O)/C=C/CNC5(C)CCC6(CC5)OCCO6)c(C#N)c4)c3)c(C(F)(F)F)cc2n1C` [Example 24, (E)-3-cyano-N-(3-(2-(methoxymethyl)-1-methyl-6-(trifluoromethyl)-1H-benzo[d]imidazol-5-yl)phenyl)-4-(4-((8-methyl-1,4-dioxaspiro[4.5]decan-8-yl)amino)but-2-enamido)benzamide], in assay [1], the IC50 was 150 nM. For the same molecule, the binding rate result in assay [2] is reported as “A (A binding rate of 80% or more is rated “A”)”.
The corresponding values for `COCc1nc2cc(-c3cccc(NC(=O)c4ccc(NC(=O)/C=C/CNC5CC6C(C5)C6(F)F)c(C#N)c4)c3)c(C(F)(F)F)cc2n1C` (centres unmarked) [Example 25, (E)-3-cyano-4-(4-((6,6-difluorobicyclo[3.1.0]hexan-3-yl)amino)but-2-enamido)-N-(3-(2-(methoxymethyl)-1-methyl-6-(trifluoromethyl)-1H-benzo[d]imidazol-5-yl)phenyl)benzamide] are 250 nM and “A (A binding rate of 80% or more is rated “A”)”.
As to `COCc1nc2cc(-c3cccc(NC(=O)c4ccc(NC(=O)/C=C/CNC5CCC5)c(C#N)c4)c3)c(C(F)(F)F)cc2n1C` [Example 26, (E)-3-cyano-4-(4-(cyclobutylamino)but-2-enamido)-N-(3-(2-(methoxymethyl)-1-methyl-6-(trifluoromethyl)-1H-benzo[d]imidazol-5-yl)phenyl)benzamide], the IC50 in assay [1] is 420 nM. For the same molecule, the binding rate result in assay [2] is “C (a binding rate of 40% or more and less than 60% is rated “C”)”.
For `COCc1nc2cc(-c3cccc(NC(=O)c4ccc(NC(=O)/C=C/CNC5CCCCC5)c(C#N)c4)c3)c(C(F)(F)F)cc2n1C` [Example 27, (E)-3-cyano-4-(4-(cyclohexylamino)but-2-enamido)-N-(3-(2-(methoxymethyl)-1-methyl-6-(trifluoromethyl)-1H-benzo[d]imidazol-5-yl)phenyl)benzamide], the IC50 in assay [1] came to 350 nM. Also, the binding rate result in assay [2] was “B (a binding rate of 60% or more and less than 80% is rated “B”)”.
As for `CO[C@H]1C[C@H](NC/C=C/C(=O)Nc2ccc(C(=O)Nc3cccc(-c4cc5nc6n(c5cc4C(F)(F)F)CCC6)c3)cc2C#N)C1` [Example 28, 3-cyano-4-((E)-4-(((1r,3r)-3-methoxycyclobutyl)amino)but-2-enamido)-N-(3-(7-(trifluoromethyl)-2,3-dihydro-1H-benzo[d]pyrrolo[1,2-a]imidazol-6-yl)phenyl)benzamide], in assay [1], the IC50 was 100 nM. Further, the binding rate result in assay [2] is listed as “A (A binding rate of 80% or more is rated “A”)”.
For `CO[C@H]1CC[C@H](NC/C=C/C(=O)Nc2ccc(C(=O)c3ccc4c(-c5cc6ncn(C)c6cc5C(F)(F)F)cccn34)cc2)CC1` [Example 39, (E)-4-(((1r,4r)-4-methoxycyclohexyl)amino)-N-(4-(8-(1-methyl-6-(trifluoromethyl)-1H-benzo[d]imidazol-5-yl)indolizine-3-carbonyl)phenyl)but-2-enamide], in that order: 300 nM and “A (A binding rate of 80% or more is rated “A”)”.
For the molecule `COc1ccccc1-c1cccn2c(C(=O)c3ccc(NC(=O)/C=C/CN[C@H]4CC[C@H](OC)CC4)c(C#N)c3)ccc12` [Example 40, (E)-N-(2-cyano-4-(8-(2-methoxyphenyl)indolizine-3-carbonyl)phenyl)-4-(((1r,4r)-4-methoxycyclohexyl)amino)but-2-enamide], the IC50 in assay [1] stood at 200 nM. Moreover, the binding rate result in assay [2] was “B (a binding rate of 60% or more and less than 80% is rated “B”)”.
`Cn1cnc2cc(-c3cccn4c(C(=O)c5ccc(NC(=O)/C=C/[C@H]6CCCN6)c(C#N)c5)ccc34)c(C(F)(F)F)cc21` [Example 42, (R,E)-N-(2-cyano-4-(8-(1-methyl-6-(trifluoromethyl)-1H-benzo[d]imidazol-5-yl)indolizine-3-carbonyl)phenyl)-3-(pyrrolidin-2-yl)acrylamide]: in assay [1], the IC50 is 360 nM. Further, the binding rate result in assay [2] is “D (a binding rate of 20% or more and less than 40% is rated “D”)”.
On to `COc1cccc(F)c1-c1cccn2c(C(=O)c3ccc(NC(=O)/C=C/CN[C@H]4CC[C@H](OC)CC4)c(C#N)c3)ccc12` [Example 43, (E)-N-(2-cyano-4-(8-(2-fluoro-6-methoxyphenyl)indolizine-3-carbonyl)phenyl)-4-(((1r,4r)-4-methoxycyclohexyl)amino)but-2-enamide], for which the IC50 in assay [1] was determined as 170 nM. Also, the binding rate result in assay [2] is given as “A (A binding rate of 80% or more is rated “A”)”.
